One substance from patent US11628198B2, “Methods for prevention and treatment of acute renal injury” (Cornell University, priority 2008, dated 2023) can be followed below.

Marks after values point to notes of the source that are not given here.

Type in all cases: in vivo, rat
For one experiment, the system named is renal mitochondria. The experiment can be described thus: I/R model: respiration of isolated renal mitochondria. The following applies: after 45 min ischemia, pretreatment. On the procedure: Results. The effects of the aromatic-cationic peptides of the invention on a model of ARI caused by ischemia-reperfusion were investigated. Renal mitochondria were isolated in accordance with the procedures described above and oxygen consumption was measured.
State 3 respiration was initiated with the addition of ADP.

Experiment [1] relates to radiocontrast dye-induced renal failure. The experiment can be described thus: CIN, indomethacin/L-NAME/iothalamate model, Experiment 1. On the procedure:
Animal Model: A model of radiocontrast dye-induced renal failure as described by Agmon et al. J Clin Invest 94:1069-1075 (1994) in this Example. As in humans, radiocontrast dye is generally non-toxic when administered to animals with normal renal function. However, radiocontrast dye can induce ARI in animals with impaired renal function. In this model, impaired renal function was induced by the administration of indomethacin (10 mg/kg) and L-NAME (10 mg/kg). The animals were divided into 3 groups: • 1. Group (1) control (n=8) • 2. Group (2) Indomethcin/L-NAME (given 15 min apart) followed by iothalamate (AngioConray 6 ml/kg) (n=7) • 3. Group (3) SS-31 (3 mg/kg, ip) was given 15 min prior to administration of indomethacin/L-NAME/iothalamate, and a second dose of SS-31 (3 mg/kg) was repeated immediately after drug exposure (n=9)
Experimental Protocol: Rats were kept in metabolic cages (Nalge Co., Rochester, N.Y.) with free access to tap water and standard rat chow. After a baseline 24-h urinary collection, the rats were anesthetized with a mixture of ketamine (90 mg/kg, i.p.) and xylazine (4 mg/kg, i.p.). The left femoral vein and artery were cannulated and a baseline blood sample drawn (1 ml) for measurement of creatinine level. The animals then received the various drug treatments as indicated above. Iothalamate Meglumine 60% (contrast dye; AngioConray 6 ml/kg) was then injected through the arterial cannula. The left femoral artery was then ligated and the cannula removed. Rats were then returned to the metabolic cages for another 24-h urine collection. […]
Renal Function: Renal function was assessed by determining GFR at baseline and 24 h following dye administration. […] Creatinine clearance was analyzed by measuring plasma (Pcr), urinary creatinine (Ucr) levels (Bioassay Systems; DICT-500) and urine volume.
Renal Histology: Kidneys were fixed in 10% neutral-buffered formalin and embedded in paraffin wax. Three micron sections were stained with hematoxylin-eosin (H&E) and periodic acid-Schiff (PAS) and analyzed by light microscopy by a board certified pathologist.

The test system of experiment [2] is ARI caused by ischemia-reperfusion (I/R). The experiment can be described thus: I/R model: TUNEL assay for apoptosis. The note with it: 30 min ischemia and 24 h reperfusion; 3 mg/kg. On the procedure: (§1) Sprague Dawley rats (250˜300 g) were assigned to four groups: (1) sham surgery group without I/R; (2) I/R+saline vehicle treatment; (3) I/R+SS-20 treatment; (4) I/R+SS-31 treatment. Each experimental group consisted of 8 rats. SS-20 and SS-31 (3 mg/kg, dissolved in saline) were administered to rats 30 min before ischemia and immediately before onset of reperfusion. The control rats were given saline alone on the same schedule.
(§2) Rats were anesthetized with a mixture of ketamine (90 mg/kg, i.p.) and xylazine (4 mg/kg, i.p.). The left renal vascular pedicle was occluded temporarily using a micro-clamp for 30 or 45 min. At the end of the ischemic period, reperfusion was established by removing of the clamp. At that time, the contralateral right kidney was removed. After 24 h reperfusion, animals were sacrificed and blood samples were obtained by cardiac puncture. Renal function was determined by blood urea nitrogen (BUN) and serum creatinine (BioAssay Systems DIUR-500 and DICT-500).
TUNEL Assay for Apoptosis: Renal tissue sections were deparaffinized and rehydrated by xylenes, graded alcohol series and deionized H2O, and then incubated in 20 μg/ml proteinase K for 20 min at RT. In situ cell death detection POD kit (Roche, IN, USA) was used according to the manufacturer's instructions. […]

Experiment [3] has as its system ATP content in renal tissue. The experiment can be described thus: I/R model: ATP content assay of kidney tissue. On the procedure: as §1, §2
ATP Content Assay: The kidney tissue was immediately put into 10 ml 5% trichloroacetic acid with 10 mM DTT, 2 mM EDTA and cut into small pieces. The tissue was homogenized on ice, incubated for another 10 min, centrifuged for 10 min at 2000×g, and neutralized with 10N KOH to pH 7.6. After centrifugation for 10 min at 2000×g, aliquots of the resulting supernatant were stored at −80° C. ATP was measured by bioluminescence (ATP bioluminescent kit, Sigma, MO, USA).

For experiment [4], the system named is ARI caused by ischemia-reperfusion (I/R). The experiment can be described thus: I/R model of ARI: BUN and serum creatinine. The following applies: 45 min ischemia and 24 h reperfusion; 3 mg/kg 30 min before ischemia and before reperfusion. On the procedure:
as §1, §2
BUN and serum creatinine were assayed using kits from BioAssay Systems (DIUR-500 and DICT-500). […] The # indicates p<0.05 from the IR=saline group.

Turning to D-Arg-2′6′Dmt-Lys-Phe-NH2 [SS-31], in the experiment on renal mitochondria, the “renal mitochondrial oxygen consumption (state 3 respiration)” value is listed as “significantly improved oxygen consumption”. For the same substance, in experiment [1] (3 mg/kg ip before and after drug exposure), the “rats almost completely protected from the effects of the dye” value was “Six of nine”. In experiment [1] (dye-injected), the “PAS staining of kidney” value was “intact brush borders and normal glomeruli”; the “apoptotic cells/hpf (TUNEL)” value was “greatly attenuated”. In experiment [2], the “TUNEL-positive cells in the medulla (tubular cell apoptosis)” value is on record as “significantly prevented TUNEL-positive cells”. In addition, in experiment [3] (1 h reperfusion following 45 min ischemia, vs vehicle), the “ATP content in renal tissue” value is given as “significantly higher”. Also, in experiment [3] (end of 15 min ischemia), the “ATP content in renal tissue” value was “not altered”. In experiment [4], the BUN is 113.8 ± 11.4# mg/dl and the “serum creatinine” value is 1.05 ± 0.16# mg/dl.
